Starred links: 1 amine or outer side, 2 acyl side, 3 side chain; linkers in the order of their positions; H or OH if unused. Positions of bridges follow the written chain, without caps; N, C: chain ends. Non-standard residues stand in square brackets, D forms with d. Residues, ends and D or L forms follow the SMILES beside them. Chains are numbered I, II in the order given. *: point of attachment. DTPA = O=C(O)CN(CCN(CC(=O)O)CC(=O)O)CCN(CC(=O)O)CC(=O)*; X1 = O=C(C(=O)*)[C@@H](O)[C@H](O)[C@@H](O)CO; Phe(4-Cl) = N[C@@H](Cc1ccc(Cl)cc1)C(=O)O; 2Nal = N[C@@H](Cc1ccc2ccccc2c1)C(=O)O; d2Nal = N[C@H](Cc1ccc2ccccc2c1)C(=O)O; εLys = N[C@@H](CCCCN[*:1])C(=O)[*:2]; NMeF = CN[C@@H](Cc1ccccc1)C(=O)O; hCys = N[C@@H](CCS)C(=O)O; X2 = O=C(C[*:1])[*:2]; Acm = CC(=O)NC*
Each compound was assayed against T1, somatostatin receptors (Rattus norvegicus, UniProt P30680) (assay: Inhibition of binding of (125I-Tyr11)somatostatin-14 to AR42J rat pancreatic tumor cell membranes). Settings: (Re=O)-complexed peptides; displacement of (125I-Tyr11)somatostatin-14, AR42J cell membranes.
T1 construct: endogenous in cells; host or cells: AR42J rat pancreatic tumor cell membranes
T1 sequence (P30680 whole entry): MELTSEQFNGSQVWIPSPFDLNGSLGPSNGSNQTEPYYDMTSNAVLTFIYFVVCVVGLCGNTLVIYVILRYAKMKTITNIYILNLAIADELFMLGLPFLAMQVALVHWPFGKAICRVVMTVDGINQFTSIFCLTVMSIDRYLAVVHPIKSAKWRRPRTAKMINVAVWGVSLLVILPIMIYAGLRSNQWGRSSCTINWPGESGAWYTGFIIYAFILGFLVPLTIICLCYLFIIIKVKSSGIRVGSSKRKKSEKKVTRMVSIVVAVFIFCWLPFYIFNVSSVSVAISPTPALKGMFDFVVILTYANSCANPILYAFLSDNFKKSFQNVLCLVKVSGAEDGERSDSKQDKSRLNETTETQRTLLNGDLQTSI
Description: Inhibition of Binding of (^125 I-Tyr^11)somatostatin-14 to AR42J Rat Pancreatic Tumor Cell Membranes
The rat pancreatic tumor cell line AR42J which expresses the somatostatin receptor was cultured in Dulbecco's minimal essential media (DMEM) supplemented with 10% fetal bovine serum (FBS) and 8 mM glutamine in a humdified 5% CO2 atmosphere at 37° C. in T-flasks. Harvested cells were homogenized in cold 50 mM Tris-HCl buffer (pH 7.4) and the homogenate then centrifuged at 39,000g for 10 min at 4° C. Pellets were washed once with buffer and then resuspended in an ice-cold solution of 10mM Tris-HCl (pH 7.4). Equal aliquots of this cell membrane preparation were incubated with (^125 I-Tyr^11)somatostatin-14 (at a final concentration of 0.5nM and 750,000cpm/mL, at a specific activity of 2000Ci/mmol, Amersham, Arlington Heights, Ill.) and peptide at a final concentration of from 10^-11 M to 10^-6 M in a solution of 50 mM HEPES (pH 7.4) containing 1% bovine serum albumin (BSA), 5 mM MgCl2, Trasylol (200,000 International Units), bacitracin (0.02 mg/mL) and phenylmethylsulfonylfluoride (0.02 mg/mL) for 25 min at 30° C. Using a filtration manifold, this mixture was filtered through a polyethyleneimine-washed GC/F filter (Whatman, Maidstone, England), and the residue remaining on the filter washed thrice with 5 mL cold HEPES buffer. The filter and a sample of the filter washings were then counted in a gamma counter. To assess non-specific binding, the assay was performed in the presence of unlabeled somatostatin-14 at 200 nM. Data analysis including Hill plots of the data provided inhibition constants (see Bylund & Yamamura, "Methods of receptor binding", in Methods in Neurotransmitter Receptor Analysis, Yamamura et al., eds., Raven Press: New York, 1990).
(DTPA).FD.Cpa.YWD KTFT(ε-K)GC.amide was tested, and the Ki was 7.9 nM.
Compound Hca.NalD.Cpa.YWD KTFT(ε-K)GCKK, amide has a Ki of 8 nM.
Work on (DTPA).Aca.FD.Cpa.YWD KTFT(ε-K)GC.amide yielded a Ki of 8.2 nM.
In the case of KD KK.NalD.Cpa.YWD KTFT(ε-K)GCDDD.amide, the Ki is reported as 1.5 nM.
For NalD.Cpa.YWD KTFT(ε-K)GCKK.amide, the Ki was 2.2 nM.
In the case of FD.Cpa.YWD KTC(ε-K)GCKK.amide, the Ki is reported as 0.13 nM.
“KD KKKFD.Cpa.YWD KTF.Nal.(ε-K)GCDDDD.amide” was tested, and the Ki was 8.1 nM.
Compound KD KK.NalD.Cpa.YWD KTFT(ε-K)GCDD.amide has a Ki of 1.6 nM.
In the case of FD.Cpa.YWD KTC(ε-K)CGC.amide, the Ki is reported as 0.37 nM.
In the case of “KDKKK.NalD.Cpa.YWD KTFT(ε-K)GCKDKD.amide”, the Ki is reported as 3.8 nM.
In the case of Ac.DD DFD.Cpa.YWD KTFT(ε-K)GCKK.amide, the Ki is reported as 1.4 nM.
Work on `CC(=O)NCSC[C@H](NC(=O)CNC(=O)[C@H](CSCNC(C)=O)NC(=O)[C@@H](NC(=O)[C@H](Cc1ccccc1)NC(=O)[C@@H](NC(=O)[C@H](CCCCN)NC(=O)[C@@H](Cc1c[nH]c2ccccc12)NC(=O)[C@H](Cc1ccc(O)cc1)NC(=O)[C@H](Cc1ccc(Cl)cc1)NC(=O)[C@@H](Cc1ccc2ccccc2c1)NC(=O)CN(CCN(CCN(CC(=O)O)CC(=O)O)CC(=O)O)CC(=O)O)[C@@H](C)O)[C@@H](C)O)C(N)=O` [(DTPA)NalD.Cpa.YWD KTFTCAcm GCAcm.amide] ({DTPA}-[d2Nal][Phe(4-Cl)]Y[dW]KTFTC(Acm)GC(Acm)-NH2) yielded a Ki of 3.1 nM.
For FD.Cpa.YWD KTC(ε-K)GC.amide, the Ki was 0.36 nM.
DD DFD.Cpa.YWD KTFT(ε-K)GCKK.amide showed a Ki of 0.5 nM.
Ac.FD FYWD KTFTGGG(ε-K)KC.amide was tested, and the Ki was 6.1 nM.
Work on (DTPA).NalD.Cpa.YWD KTFT(ε-K)GC.amide yielded a Ki of 11 nM.
`C[C@@H](O)[C@H](NC(=O)[C@H](Cc1ccccc1)NC(=O)[C@@H](NC(=O)[C@H](CCCCN)NC(=O)[C@@H](Cc1c[nH]c2ccccc12)NC(=O)[C@H](Cc1ccc(O)cc1)NC(=O)[C@H](Cc1ccc(Cl)cc1)NC(=O)[C@@H](Cc1ccccc1)NC(=O)C(=O)[C@@H](O)[C@H](O)[C@@H](O)CO)[C@@H](C)O)C(=O)NCCCC[C@H](N)C(=O)NCC(=O)N[C@@H](CS)C(N)=O` [(2-ketogulonyl)FD.Cpa.YWD KTFT(ε-K)GC.amide] (X1-[dF][Phe(4-Cl)]Y[dW]KTFT[εLys]GC-NH2) was tested, and the Ki was 3.7 nM.

Same assay, conditions: peptides not metal-complexed; displacement of (125I-Tyr11)somatostatin-14, AR42J cell membranes
`C[C@H](N)C(=O)N[C@@H](CCCCN)C(=O)N[C@@H](CS)C(=O)NCC(=O)NCC(=O)NCC(=O)N[C@H](Cc1ccccc1)C(=O)N[C@@H](Cc1ccc(Cl)cc1)C(=O)N[C@@H](Cc1ccc(O)cc1)C(=O)N[C@H](Cc1c[nH]c2ccccc12)C(=O)N[C@@H](CCCCN)C(=O)N[C@H](C(=O)N[C@@H](Cc1ccccc1)C(=O)N[C@H](C(N)=O)[C@@H](C)O)[C@@H](C)O` [AKCGGGFD.Cpa.YWD KTFT.amide] (H-AKCGGG[dF][Phe(4-Cl)]Y[dW]KTFT-NH2) showed a Ki of 1.4 nM.
With `CC(C)[C@@H]1NC(=O)[C@H](CCCCN)NC(=O)[C@@H](Cc2c[nH]c3ccccc23)NC(=O)[C@H](Cc2ccc(O)cc2)NC(=O)[C@H](Cc2ccccc2)N(C)C(=O)[C@H](CCSCC(=O)NCC(=O)NCC(=O)N[C@@H](CS)C(=O)N[C@@H](CCCCN)C(=O)N[C@@H](CCCCN)C(N)=O)NC1=O` [cyclo(N-Me)FYWD KV.Hcy(CH2 CO.GGCKK.amide)] (I: cyclo([NMeF]Y[dW]KV[hCys]) / II: GGCKK-NH2; linker I:6-II:N via X2) the Ki was 0.26 nM.
`C[C@@H](O)[C@H](NC(=O)[C@H](Cc1ccc2ccccc2c1)NC(=O)[C@@H](NC(=O)[C@H](CCCCN)NC(=O)[C@@H](Cc1c[nH]c2ccccc12)NC(=O)[C@H](Cc1ccc(O)cc1)NC(=O)[C@H](Cc1ccc(Cl)cc1)NC(=O)[C@@H](Cc1ccc2ccccc2c1)NC(=O)CN(CCN(CCN(CC(=O)O)CC(=O)O)CC(=O)O)CC(=O)O)[C@@H](C)O)C(=O)NCCCC[C@H](N)C(=O)NCC(=O)N[C@@H](CS)C(=O)N[C@@H](CCCCN)C(=O)N[C@@H](CCCCN)C(N)=O` [(DTPA)NalD.Cpa.YWD KT.Nal.T(ε-K)GCKK.amide] ({DTPA}-[d2Nal][Phe(4-Cl)]Y[dW]KT[2Nal]T[εLys]GCKK-NH2) was tested, and the Ki was 2 nM.
For `CC(C)[C@H](NC(=O)[C@H](CCCCN)NC(=O)[C@@H](Cc1c[nH]c2ccccc12)NC(=O)[C@H](Cc1ccc(O)cc1)NC(=O)[C@H](CS)NC(=O)[C@@H](Cc1ccc2ccccc2c1)NC(=O)CN(CCN(CCN(CC(=O)O)CC(=O)N[C@H](Cc1ccc2ccccc2c1)C(=O)N[C@@H](CS)C(=O)N[C@@H](Cc1ccc(O)cc1)C(=O)N[C@H](Cc1c[nH]c2ccccc12)C(=O)N[C@@H](CCCCN)C(=O)N[C@H](C(=O)N[C@@H](CS)C(=O)N[C@H](C(N)=O)[C@@H](C)O)C(C)C)CC(=O)O)CC(=O)O)C(=O)N[C@@H](CS)C(=O)N[C@H](C(N)=O)[C@@H](C)O` [(DTPA)(NalD.CYWD KVCT)2], the Ki was 7.2 nM.
“KD KKK.NalD.Cpa.YWD KTFT(ε-K)GCKDKD.amide” was tested, and the Ki was 4.9 nM.
Work on `C[C@@H](O)[C@H](NC(=O)[C@H](Cc1ccccc1)NC(=O)[C@@H](NC(=O)[C@H](CCCCN)NC(=O)[C@@H](Cc1c[nH]c2ccccc12)NC(=O)[C@H](Cc1ccc(O)cc1)NC(=O)[C@H](Cc1ccc(Cl)cc1)NC(=O)[C@@H](Cc1ccccc1)NC(=O)C(=O)[C@@H](O)[C@H](O)[C@@H](O)CO)[C@@H](C)O)C(=O)NCCCC[C@H](N)C(=O)NCC(=O)N[C@@H](CS)C(N)=O` [(2-ketogulonyl)FD.Cpa.YWD KTFT(ε-K)GC.amide] (X1-[dF][Phe(4-Cl)]Y[dW]KTFT[εLys]GC-NH2) yielded a Ki of 2.7 nM.
With `C[C@@H](O)[C@H](NC(=O)[C@H](Cc1ccccc1)NC(=O)[C@@H](NC(=O)[C@H](CCCCN)NC(=O)[C@@H](Cc1c[nH]c2ccccc12)NC(=O)[C@H](Cc1ccc(O)cc1)NC(=O)[C@H](Cc1ccc(Cl)cc1)NC(=O)[C@H](N)Cc1ccccc1)[C@@H](C)O)C(=O)N[C@@H](CS)C(=O)NCC(=O)N[C@@H](CS)C(N)=O` [FD.Cpa.YWD KTFTCGC.amide] (H-[dF][Phe(4-Cl)]Y[dW]KTFTCGC-NH2) the Ki was 4.8 nM.
